The term pKd denotes the negative decadic logarithm of the Kd, by convention in mol/L. Lower therefore signals a high Kd.

We go through 26 molecules from US10647713B2 (Nimbus Lakshmi, Inc., priority 2016, dated 2020).

Structures are written as SMILES. pKd: −log10 of the molar value.

Sequence of human TYK2 (JH2domain-pseudokinase) (P29597 556-888): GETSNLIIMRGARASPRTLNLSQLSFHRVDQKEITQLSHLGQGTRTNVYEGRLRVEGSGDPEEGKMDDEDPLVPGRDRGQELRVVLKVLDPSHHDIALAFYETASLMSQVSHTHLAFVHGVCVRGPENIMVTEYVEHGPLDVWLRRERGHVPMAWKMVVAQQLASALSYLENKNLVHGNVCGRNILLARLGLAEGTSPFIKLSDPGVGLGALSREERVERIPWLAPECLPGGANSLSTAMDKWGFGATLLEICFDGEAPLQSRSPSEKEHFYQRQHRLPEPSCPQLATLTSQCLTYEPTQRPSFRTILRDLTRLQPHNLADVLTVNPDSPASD

This assay addresses human TYK2 (JH2domain-pseudokinase) (Homo sapiens (Human), UniProt P29597). Briefly: TYK2 JH2 Domain Binding Assay (KINOMEscan, DiscoveRx). Particulars: 11-point dilution, duplicate. Put shortly:
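Kd from duplicate 11-point 3-fold dilutions starting at 30,000 nM, fitted by Hill equation with slope fixed at −1. Compounds (final 0.9% DMSO) displace DNA-tagged HEK293-expressed TYK2 JH2 fusion (<0.1 nM) from ligand-coated beads over 1 h at room temperature; eluted kinase read by qPCR.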
Take `Cc1nc2c(Nc3ccc(C4=NC(C)(C)CS4)cc3S(C)(=O)=O)cc(NC(=O)[C@@H]3CC3(F)F)nc2[nH]1` [I-485, (S)—N-(7-((4-(4,4-dimethyl-4,5-dihydrothiazol-2-yl)-2-(methylsulfonyl)phenyl)amino)-2-methyl-3H-imidazo[4,5-b]pyridin-5-yl)-2,2-difluorocyclopropane-1-carboxamide]: the pKd is less than 8.00.

As for `Cc1ncc(Nc2cc(Nc3ccc([C@H]4CCCCO4)cc3S(C)(=O)=O)c3nc(C(F)F)[nH]c3n2)nc1C` [I-486, (R)-2-(difluoromethyl)-N5-(5,6-dimethylpyrazin-2-yl)-N7-(2-(methylsulfonyl)-4-(tetrahydro-2H-pyran-2-yl)phenyl)-3H-imidazo[4,5-b]pyridine-5,7-diamine], the negative-log Kd (pKd) is 9.30 to 10.00.

`Cc1ncc(Nc2cc(Nc3ccc([C@@H]4CCCCO4)cc3S(C)(=O)=O)c3nc(C(F)F)[nH]c3n2)nc1C` [I-487, (S)-2-(difluoromethyl)-N5-(5,6-dimethylpyrazin-2-yl)-N7-(2-(methylsulfonyl)-4-(tetrahydro-2H-pyran-2-yl)phenyl)-3H-imidazo[4,5-b]pyridine-5,7-diamine] gave a pKd of 9.00 to 9.30.

As for `Cc1nc2c(Nc3ccc(-c4nc(C)sc4C)cc3S(C)(=O)=O)cc(NC(=O)C3CC3)nc2[nH]1` [I-488, N-(7-((4-(2,5-dimethylthiazol-4-yl)-2-(methylsulfonyl)phenyl)amino)-2-methyl-3H-imidazo[4,5-b]pyridin-5-yl)cyclopropanecarboxamide], the pKd was more than 10.00.

For the molecule `CC(C)c1ccc(Nc2cc(Nc3ccccc3S(C)(=O)=O)c3nc(C(F)F)[nH]c3n2)nc1C#N` [I-489, 6-((2-(difluoromethyl)-7-((2-(methylsulfonyl)phenyl)amino)-3H-imidazo[4,5-b]pyridin-5-yl)amino)-3-isopropylpicolinonitrile], the pKd is 9.30 to 10.00.

`Cc1nc2c(Nc3ccccc3S(C)(=O)=O)cc(Nc3ccc(C(C)C)c(C#N)n3)nc2[nH]1` [I-490, 3-isopropyl-6-((2-methyl-7-((2-(methylsulfonyl)phenyl)amino)-3H-imidazo[4,5-b]pyridin-5-yl)amino)picolinonitrile] had a pKd of 9.30 to 10.00.

The molecule `Cc1c(-c2ccc(Nc3cc(Nc4cc5n(n4)CCOC5)nc4[nH]c(C(F)F)nc34)c(S(C)(=O)=O)c2)cnn1C` [I-491, 2-(difluoromethyl)-N5-(6,7-dihydro-4H-pyrazolo[5,1-c][1,4]oxazin-2-yl)-N7-(4-(1,5-dimethyl-1H-pyrazol-4-yl)-2-(methylsulfonyl)phenyl)-3H-imidazo[4,5-b]pyridine-5,7-diamine] showed a negative-log Kd (pKd) of more than 10.00.

Turning to `Cc1nc2c(Nc3ccc(-c4cnn(C)c4C)cc3S(C)(=O)=O)cc(Nc3cc4n(n3)CCOC4)nc2[nH]1` [I-492, N5-(6,7-dihydro-4H-pyrazolo[5,1-c][1,4]oxazin-2-yl)-N7-(4-(1,5-dimethyl-1H-pyrazol-4-yl)-(methylsulfonyl)phenyl)-2-methyl-3H-imidazo[4,5-b]pyridine-5,7-diamine], the pKd is more than 10.00.

The molecule `Cc1c(-c2ccc(Nc3cc(Nc4cccc(C(F)(F)F)n4)nc4[nH]c(C(F)F)nc34)c(S(C)(=O)=O)c2)cnn1C` [I-493, 2-(difluoromethyl)-N7-(4-(1,5-dimethyl-1H-pyrazol-4-yl)-2-(methylsulfonyl)phenyl)-N5-(6-(trifluoromethyl)pyridin-2-yl)-3H-imidazo[4,5-b]pyridine-5,7-diamine] showed a pKd of 9.30 to 10.00.

The molecule `Cc1cc(Nc2cc(Nc3ccc([C@H]4CCCCO4)cc3S(C)(=O)=O)c3nc(C(F)F)[nH]c3n2)nc(C)n1` [I-494, (R)-2-(difluoromethyl)-N5-(2,6-dimethylpyrimidin-4-yl)-N7-(2-(methylsulfonyl)-4-(tetrahydro-2H-pyran-2-yl)phenyl)-3H-imidazo[4,5-b]pyridine-5,7-diamine] had a pKd of more than 10.00.

As to `Cc1cnc(-c2ccc(Nc3cc(Nc4cc5n(n4)CCOC5)nc4[nH]c(C(F)F)nc34)c(S(C)(=O)=O)c2)s1` [I-495, 2-(difluoromethyl)-N5-(6,7-dihydro-4H-pyrazolo[5,1-c][1,4]oxazin-2-yl)-N7-(2-(methylsulfonyl)-4-(5-methylthiazol-2-yl)phenyl)-3H-imidazo[4,5-b]pyridine-5,7-diamine], the pKd is 9.30 to 10.00.

`Cc1nc2c(Nc3ccc(-c4ncc(C)s4)cc3S(C)(=O)=O)cc(Nc3cc4n(n3)CCOC4)nc2[nH]1` [I-496, N5-(6,7-dihydro-4H-pyrazolo[5,1-c][1,4]oxazin-2-yl)-2-methyl-N7-(2-(methylsulfonyl)-4-(5-methylthiazol-2-yl)phenyl)-3H-imidazo[4,5-b]pyridine-5,7-diamine] showed a negative logarithm of the Kd (pKd) of 9.30 to 10.00.

The molecule `CC1(C)CC[C@H](c2ccc(Nc3cc(NC(=O)C4CC4)nc4[nH]c(C(F)F)nc34)c(S(C)(=O)=O)c2)O1` [I-498, (R)—N-(2-(difluoromethyl)-7-((4-(5,5-dimethyltetrahydrofuran-2-yl)-2-(methylsulfonyl)phenyl)amino)-3H-imidazo[4,5-b]pyridin-5-yl)cyclopropanecarboxamide] gave a pKd of 9.30 to 10.00.

In turn, `CC1(C)CC[C@@H](c2ccc(Nc3cc(NC(=O)C4CC4)nc4[nH]c(C(F)F)nc34)c(S(C)(=O)=O)c2)O1` [I-499, (S)—N-(2-(difluoromethyl)-7-((4-(5,5-dimethyltetrahydrofuran-2-yl)-2-(methylsulfonyl)phenyl)amino)-3H-imidazo[4,5-b]pyridin-5-yl)cyclopropanecarboxamide] showed a negative-log Kd (pKd) of 8.00 to 9.00.

The molecule `COCc1nc(-c2ccc(Nc3cc(NC(=O)C4CC4)nc4[nH]c(C(F)F)nc34)c(S(C)(=O)=O)c2)sc1C` [I-500, N-(2-(difluoromethyl)-7-((4-(4-(methoxymethyl)-5-methylthiazol-2-yl)-2-(methylsulfonyl)phenyl)amino)-3H-imidazo[4,5-b]pyridin-5-yl)cyclopropanecarboxamide] had a pKd of 9.30 to 10.00.

`COCCCn1ccc(-c2ccc(Nc3cc(NC(=O)C4CC4)nc4[nH]c(C(F)F)nc34)c(S(C)(=O)=O)c2)n1` [I-501, N-(2-(difluoromethyl)-7-((4-(1-(3-methoxypropyl)-1H-pyrazol-3-yl)-2-(methylsulfonyl)phenyl)amino)-3H-imidazo[4,5-b]pyridin-5-yl)cyclopropanecarboxamide] showed a pKd of 9.30 to 10.00.

`COCCCn1ccc(-c2ccc(Nc3cc(NC(=O)C4CC4)nc4[nH]c(C)nc34)c(S(C)(=O)=O)c2)n1` [I-502, N-(7-((4-(1-(3-methoxypropyl)-1H-pyrazol-3-yl)-2-(methylsulfonyl)phenyl)amino)-2-methyl-3H-imidazo[4,5-b]pyridin-5-yl)cyclopropanecarboxamide] showed a negative-log Kd (pKd) of 9.30 to 10.00.

Consider `Cc1nc2c(Nc3ccc(-c4ncc(C)s4)cc3S(C)(=O)=O)cc(Nc3cccc(C#N)n3)nc2[nH]1` [I-503, 6-((2-methyl-7-((2-(methylsulfonyl)-4-(5-methylthiazol-2-yl)phenyl)amino)-3H-imidazo[4,5-b]pyridin-5-yl)amino)picolinonitrile], for which the pKd is 9.30 to 10.00.

With `Cc1csc(-c2ccc(Nc3cc(Nc4cccc(C#N)n4)nc4[nH]c(C)nc34)c(S(C)(=O)=O)c2)n1` [I-504, 6-((2-methyl-7-((2-(methylsulfonyl)-4-(4-methylthiazol-2-yl)phenyl)amino)-3H-imidazo[4,5-b]pyridin-5-yl)amino)picolinonitrile], the pKd was 9.30 to 10.00.

`Cc1cc(Nc2cc(Nc3ccc([C@@H]4CCCCO4)cc3S(C)(=O)=O)c3nc(C(F)F)[nH]c3n2)nc(C)n1` [I-505, (S)-2-(difluoromethyl)-N5-(2,6-dimethylpyrimidin-4-yl)-N7-(2-(methylsulfonyl)-4-(tetrahydro-2H-pyran-2-yl)phenyl)-3H-imidazo[4,5-b]pyridine-5,7-diamine] had a pKd of 9.30 to 10.00.

Turning to `Cc1nc2c(Nc3ccc(-c4nc(C)c(C)s4)cc3S(C)(=O)=O)cc(Nc3cccc(C#N)n3)nc2[nH]1` [I-506, 6-((7-((4-(4,5-dimethylthiazol-2-yl)-2-(methylsulfonyl)phenyl)amino)-2-methyl-3H-imidazo[4,5-b]pyridin-5-yl)amino)picolinonitrile], the pKd is 9.00 to 9.30.

The molecule `Cc1nc(-c2ccc(Nc3cc(Nc4cccc(C#N)n4)nc4[nH]c(C(F)F)nc34)c(S(C)(=O)=O)c2)sc1C` [I-507, 6-((2-(difluoromethyl)-7-((4-(4,5-dimethylthiazol-2-yl)-2-(methylsulfonyl)phenyl)amino)-3H-imidazo[4,5-b]pyridin-5-yl)amino)picolinonitrile] showed a pKd of 8.00 to 9.00.

`Cc1nc2c(Nc3ccc(-c4cc(C)n(C)n4)cc3S(C)(=O)=O)cc(Nc3cnc(C)c(C)n3)nc2[nH]1` [I-508, N7-(4-(1,5-dimethyl-1H-pyrazol-3-yl)-2-(methylsulfonyl)phenyl)-N5-(5,6-dimethylpyrazin-2-yl)-2-methyl-3H-imidazo[4,5-b]pyridine-5,7-diamine] gave a pKd of more than 10.00.

Regarding `Cc1cc(Nc2cc(Nc3ccc(-c4cc(C)n(C)n4)cc3S(C)(=O)=O)c3nc(C)[nH]c3n2)nc(C)n1` [I-509, N7-(4-(1,5-dimethyl-1H-pyrazol-3-yl)-2-(methylsulfonyl)phenyl)-N5-(2,6-dimethylpyrimidin-4-yl)-2-methyl-3H-imidazo[4,5-b]pyridine-5,7-diamine], the pKd is more than 10.00.

Turning to `Cc1cc(Nc2cc(Nc3ccc(-c4nn(C)cc4C)cc3S(C)(=O)=O)c3nc(C(F)F)[nH]c3n2)nc(C)n1` [I-510, 2-(difluoromethyl)-N7-(4-(1,4-dimethyl-1H-pyrazol-3-yl)-2-(methylsulfonyl)phenyl)-N5-(2,6-dimethylpyrimidin-4-yl)-3H-imidazo[4,5-b]pyridine-5,7-diamine], the negative-log Kd (pKd) was more than 10.00.

For `Cc1cc(Nc2cc(Nc3ccc(-c4nn(C)cc4C)cc3S(C)(=O)=O)c3nc(C)[nH]c3n2)nc(C)n1` [I-511, N7-(4-(1,4-dimethyl-1H-pyrazol-3-yl)-2-(methylsulfonyl)phenyl)-N5-(2,6-dimethylpyrimidin-4-yl)-2-methyl-3H-imidazo[4,5-b]pyridine-5,7-diamine], the pKd was more than 10.00.
